Source: patent publication US5057520A, “7-(peptidylpyrolidinyl)naphthyridine antibacterial compounds” (Abbott Laboratories, priority 1989, dated 1991)
Values after ≈ are worked out from the molar mass of the structure shown. Structures can show the parent of a compound that is named as a salt.

Columns and labels:
Stap. Aureus NCTC 10649 = assay: Acute mouse protection test; assay type: in vivo; details: mice infected i.p. with Stap. Aureus NCTC 10649, observed 7 days; for SC (ED50): SC dosing at 1 and 5 hours post-infection; for Oral (ED50): oral dosing at 1 and 5 hours post-infection
P. Aeruginosa A5007 = assay: Acute mouse protection test; assay type: in vivo; details: mice infected i.p. with P. Aeruginosa A5007, observed 7 days; for SC (ED50): SC dosing at 1 and 5 hours post-infection; for Oral (ED50): oral dosing at 1 and 5 hours post-infection
Strep. pyogenes EES 61 = assay: Second in vitro MIC test, Brain Heart Infusion Broth (BHIB); assay type: cell-based
E. Coli Juhl [1] = assay: Acute mouse protection test; assay type: in vivo; details: mice infected i.p. with E. Coli JUHL, observed 7 days; for SC (ED50): SC dosing at 1 and 5 hours post-infection; for Oral (ED50): oral dosing at 1 and 5 hours post-infection
E. Coli Juhl [2] = assay: Second in vitro MIC test, Brain Heart Infusion Broth (BHIB); assay type: cell-based
[3] = Conversion of prodrug to parent drug in whole blood at 37° C.; assay type: in vitro ADME, Dog
Experimental: An aqueous solution of prodrug (Z) is spiked into fresh whole blood containing sodium heparin as an anticoagulant. The sample is mixed gently by inversion and placed in a 37° waterbath. At selected time intervals an 0.5 ml aliquot of blood is removed and placed in a chilled 1.5 ml centrifuge tube (ice temperature). Samples are centrifuges at 13,000 rpm for two minutes to separate plasma. An 0.2 ml aliquot of the plasma sample is combined with 0.2 ml internal standard (7-(4-amino-2-methyl-1-pyrrolidinyl)-1-(2,4-difluorophenyl)-6-fluoro-1,4-d ihydro-4-oxo-1,8-naphthyridine-3-carboxylic acid in 0.2M sodium phosphate pH 7.2 buffer) and 6 mls CH2 Cl2 :EtoH (9:1 by volume). Samples are capped and shaken gently for 10 minutes. Samples are centrifuges at 2500 rpm for 10 minutes (4° C.). The aqueous layer is aspirated to waste and the organic layer is transferred to a conical centrifuge tube and evaporated to dryness with a stream of dry air and low heat ([…]). Samples are reconstituted with 0.2 ml mobile phase followed by vortexing. Samples are centrifuges at 2500 rpm for 10 minutes to separate precipitate. The supernatant is transferred to a WISP vial with plastic insert for HPLC analysis.

Ps. Aeruginosa A5007 = assay: Second in vitro MIC test, Brain Heart Infusion Broth (BHIB); assay type: cell-based
Stap. Aureus CMX 553 = assay: as above; assay type: cell-based

SMILES	Solubility pH 7.4 [mg/ml]	MIC (Strep. pyogenes EES 61) [µg/mL]	MIC (E. Coli Juhl [2]) [µg/mL]	Half Life Dog [3]	MIC (Ps. Aeruginosa A5007) [µg/mL]	MIC (Stap. Aureus CMX 553) [µg/mL]	SC (ED50) (Stap. Aureus NCTC 10649) [mg/kg/day]	Oral (ED50) (Stap. Aureus NCTC 10649) [mg/kg/day]	SC (ED50) (P. Aeruginosa A5007) [mg/kg/day]	Oral (ED50) (P. Aeruginosa A5007) [mg/kg/day]	SC (ED50) (E. Coli Juhl [1]) [mg/kg/day]	Oral (ED50) (E. Coli Juhl [1]) [mg/kg/day]
Cl.NCC(=O)N[C@@H](Cc1ccccc1)C(=O)NC1CCN(c2cc3c(cc2F)c(=O)c(C(=O)O)cn3-c2ccc(F)cc2F)C1 (stereo partly drawn) [Example 26jj, 1-(2,4-Difluorophenyl)-6-Fluoro-7-(3-Gly-L-Phe-Amino-1-Pyrrolidinyl)-1,4-Di hydro-4-Oxo-Quinoline-3-Carboxylic Acid Hydrochloride]			16									
CCCC(N)C(=O)NC1CCN(c2cc3c(cc2F)c(=O)c(C(=O)O)cn3-c2ccc(F)cc2)C1 (stereo not drawn) [Example 26h]			0.78 (≈ 1.61 µM)	51.1 s			1.0	4.0	8.5	101.3	0.8	12.1
CC(C)CC(N)C(=O)NC1CCN(c2nc3c(cc2F)c(=O)c(C(=O)O)cn3C2CC2)C1 (stereo not drawn) [Example 26o]				108.6 s			1.0	4.0	3.9	6.2	0.2	1.2
CC(C)C(N)C(=O)NC1CCN(c2nc3c(cc2F)c(=O)c(C(=O)O)cn3-c2ccc(F)cc2F)C1 (stereo not drawn) [Example 19]	0.41											
CCCC(N)C(=O)NC1CCN(c2cc3c(cc2F)c(=O)c(C(=O)O)cn3C2CC2)C1 (stereo not drawn) [Example 26l]				118.5 s			4.0		2.8	18.2	0.5	9.4
CCCC(N)C(=O)NC1CCN(c2nc3c(cc2F)c(=O)c(C(=O)O)cn3C2CC2)C1 (stereo not drawn) [Example 26p]				70.1 s			6.8	4.5	2.8	9.1		
NC(=O)C[C@H](N)C(=O)NC1CCN(c2nc3c(cc2F)c(=O)c(C(=O)O)cn3-c2ccc(F)cc2F)C1 (stereo partly drawn) [Example 41, 7-(3-L-Asparagine-amino-1-pyrrolidinyl)-1-(2,4-difluorophenyl)-6-fluoro-1,4-dihydro-4-oxo-1,8-naphthyridine-3-carboxylic acid hydrochloride]							0.7	2.9	2.8	17.2		
CCCC(N)C(=O)NC1CCN(c2cc3c(cc2F)c(=O)c(C(=O)O)cn3-c2ccc(F)cc2F)C1 (stereo not drawn) [Example 26b]				43.4 s			0.8	27.9	6.7	18.2		
CCCC(N)C(=O)NC1CCN(c2nc3c(cc2F)c(=O)c(C(=O)O)cn3-c2ccc(F)cc2)C1 (stereo not drawn) [Example 26i]		1.56 (≈ 3.21 µM)		108.1 s			0.7	5.3				
CC(N)C(=O)NC1CCN(c2c(F)cc3c(=O)c(C(=O)O)cn(C4CC4)c3c2F)C1 (stereo not drawn) [Example 26s]							1.3	4.8	2.4	5.0	0.1	1.8
CC(N)C(=O)NC(Cc1ccccc1)C(=O)NC1CCN(c2nc3c(cc2F)c(=O)c(C(=O)O)cn3-c2ccc(F)cc2F)C1 (stereo not drawn) [Example 11]	0.59		16 (≈ 25.7 µM)	10.4 m	128 (≈ 206 µM)	16.0 (≈ 25.7 µM)	0.7	2.0	9.7	65.3		
CCC[C@H](N)C(=O)NC1CCN(c2nc3c(cc2F)c(=O)c(C(=O)O)cn3CC)C1 (stereo partly drawn) [Example 26ff]				92.6 s					10.3	30.5		

Now from value to molecule, other results behind:

Solubility pH 7.4 [mg/ml]	MIC (Strep. pyogenes EES 61) [µg/mL]	MIC (E. Coli Juhl [2]) [µg/mL]	Half Life Dog [3]	MIC (Ps. Aeruginosa A5007) [µg/mL]	MIC (Stap. Aureus CMX 553) [µg/mL]	SMILES	SC (ED50) (Stap. Aureus NCTC 10649) [mg/kg/day]	Oral (ED50) (Stap. Aureus NCTC 10649) [mg/kg/day]	SC (ED50) (P. Aeruginosa A5007) [mg/kg/day]	Oral (ED50) (P. Aeruginosa A5007) [mg/kg/day]	SC (ED50) (E. Coli Juhl [1]) [mg/kg/day]	Oral (ED50) (E. Coli Juhl [1]) [mg/kg/day]
2.50						CSCC[C@H](NC(=O)[C@H](C)N)C(=O)NC1CCN(c2nc3c(cc2F)c(=O)c(C(=O)O)cn3-c2ccc(F)cc2F)C1 (stereo partly drawn) [Example 55n, 7-(3-Ala-Met-amino-1-pyrrolidinyl)-6-fluoro-1-(2,4-difluorophenyl)-1,4-dih ydro-4-oxo-1,8-naphthyridine-3-carboxylic acid]						
2.40						N[C@@H](CC(=O)O)C(=O)NC1CCN(c2nc3c(cc2F)c(=O)c(C(=O)O)cn3-c2ccc(F)cc2F)C1 (stereo partly drawn) [Example 45, 7-(3-L-Asp-amino-1-pyrrolidinyl)-1-(2,4-difluorophenyl)-6-fluoro-1,4-dihyd ro-4-oxo-1,8-naphthyridine-3-carboxylic acid hydrochloride]	0.7	1.5	6.6	13.0		
2.0						CC(C)C[C@H](NC(=O)[C@H](C)N)C(=O)NC1CCN(c2nc3c(cc2F)c(=O)c(C(=O)O)cn3-c2ccc(F)cc2F)C1 (stereo partly drawn) [Example 55r, 7-(3-Ala-Leu-amino-1-pyrrolidinyl)-6-fluoro-1-(2,4-difluorophenyl)-1,4-dih ydro-4-oxo-1,8-naphthyridine-3-carboxylic acid]						
0.31						CSCC[C@H](NC(=O)[C@@H](N)CCSC)C(=O)NC1CCN(c2nc3c(cc2F)c(=O)c(C(=O)O)cn3-c2ccc(F)cc2F)C1 (stereo partly drawn) [Example 55o, 7-(3-Met-Met-amino-1-pyrrolidinyl)-6-fluoro-1-(2,4-difluorophenyl)-1,4-dih ydro-4-oxo-1,8-naphthyridine-3-carboxylic acid]						
	25					CS(=O)(=O)CC[C@H](N)C(=O)NC1CCN(c2nc3c(cc2F)c(=O)c(C(=O)O)cn3-c2ccc(F)cc2F)C1 (stereo partly drawn) [Example 31c, 7-[3-L-Methioninesulfone-Amino-1-Pyrrolidinyl]-1-(2,4-Difluorophenyl)-6-Flu oro-1,4-Dihydro-4-Oxo 1.8-Naphthyridine-3-Carboxylic Acid Hydrochloride]	0.5	1.8	2.4	7.8	0.2	1.8
			71.7 s			CCCC(N)C(=O)NC1CCN(c2c(F)cc3c(=O)c(C(=O)O)cn(C4CC4)c3c2F)C1 (stereo not drawn) [Example 26r]	0.9	3.0	2.7	7.3	0.2	2.3
0.06						CSCC[C@H](NC(=O)[C@@H](N)CC(C)C)C(=O)NC1CCN(c2nc3c(cc2F)c(=O)c(C(=O)O)cn3-c2ccc(F)cc2F)C1 (stereo partly drawn) [Example 55p, 7-(3-Leu-Met-amino-1-pyrrolidinyl)-6-fluoro-1-(2,4-difluorophenyl)-1,4-dih ydro-4-oxo-1,8-naphthyridine-3-carboxylic acid]						
				> 64		N[C@@H](Cc1cnc[nH]1)C(=O)NC1CCN(c2nc3c(cc2F)c(=O)c(C(=O)O)cn3-c2ccc(F)cc2F)C1 (stereo partly drawn) [Example 44c, 7-(3-L-histidine-amino-1-pyrrolidinyl)-1-(2,4-difluorophenyl)-6-fluoro-1,4-dihydro-4-oxo-1,8-naphthyridine-3-carboxylic acid hydrochloride]	0.7	4.0	8.3	51.3		
	100		46 m	> 100	100	Cl.Cl.NCCCC[C@H](N)C(=O)NC1CCN(c2nc3c(cc2F)c(=O)c(C(=O)O)cn3-c2ccc(F)cc2F)C1 (stereo partly drawn) [Example 46, 7-(3-Lys-amino-1-pyrrolidinyl)-1-(2,4-difluorophenyl)-6-fluoro-1,4-dihydro-4-oxo-1,8-naphthyridine-3-carboxylic acid dihydrochloride]	0.7	3.4	4.5	12.5		
0.19						CC(C)C[C@H](NC(=O)[C@@H](N)CC(C)C)C(=O)NC1CCN(c2nc3c(cc2F)c(=O)c(C(=O)O)cn3-c2ccc(F)cc2F)C1 (stereo partly drawn) [Example 55q, 7-(3 Leu-Leu-amino-1-pyrrolidinyl)-6-fluoro-1-(2,4-difluorophenyl)-1,4-dihydro- 4-oxo-1,8-naphthyridine-3-carboxylic acid]						
